Source: publication PMC6424229, “^68Ga-FAPI PET/CT: Biodistribution and Preliminary Dosimetry Estimate of 2 DOTA-Containing FAP-Targeting Agents in Patients with Various Cancers” (Journal of Nuclear Medicine, 2019)
“And” between values parts separate entries of the source, which are not always exact repeats. Identical values can stand only once. Like-named read-outs stand apart in the source and are kept apart here.

Legend:
tumor lesions [1] = test: Serial PET/CT 10 min, 1 h and 3 h after injection (tracer kinetics, tumor retention); assay type: in vivo, patients; details: mean; one patient with metastasized breast cancer per tracer
Experimental: (§1) To approximate the dosimetry, imaging was performed 10 min, 1 h, and 3 h after injection of 306 MBq of ^68Ga-FAPI-2 in one patient and 258 MBq of ^68Ga-FAPI-4 in another patient.

[2] = PET/CT normal-organ / background uptake (SUVmax) 1 h after injection; details: for Unspecific uptake in locations of wound healing after surgical intervention, average SUVmax: interindividual comparison, 25 patients per tracer, not statistically significant
[3] = Radiation dosimetry estimate from serial PET/CT (QDOSE; OLINDA 1.1, IDAC-Dose 1.0/2.1); assay type: in vivo, patients; details: for Radiation exposure (effective dose) per 100 MBq: PET; for Radiation exposure (effective dose) per 100 MBq / Effective dose / Dosimetry estimate (OLINDA), Red marrow / Dosimetry estimate (OLINDA), Adrenals / Dosimetry estimate (OLINDA), Brain / Dosimetry estimate (OLINDA), Breasts / Dosimetry estimate (OLINDA), Gallbladder wall / Dosimetry estimate (OLINDA), Heart wall / Dosimetry estimate (OLINDA), Kidneys / Dosimetry estimate (OLINDA), Liver / Dosimetry estimate (OLINDA), Lower large intestine wall / Dosimetry estimate (OLINDA), Lungs / Dosimetry estimate (OLINDA), Muscle / Dosimetry estimate (OLINDA), Osteogenic cells / Dosimetry estimate (OLINDA), Ovaries / Dosimetry estimate (OLINDA), Pancreas / Dosimetry estimate (OLINDA), Skin / Dosimetry estimate (OLINDA), Small intestine / Dosimetry estimate (OLINDA), Spleen / Dosimetry estimate (OLINDA), Stomach wall / Dosimetry estimate (OLINDA), Testes / Dosimetry estimate (OLINDA), Thymus / Dosimetry estimate (OLINDA), Thyroid / Dosimetry estimate (OLINDA), Upper large intestine wall / Dosimetry estimate (OLINDA), Urinary bladder wall / Dosimetry estimate (OLINDA), Uterus / Dosimetry estimate (OLINDA), Total body: one patient per tracer; for Equivalent dose / radiation dose of one examination: examination with 200 MBq of 68Ga; for Dosimetry estimate (OLINDA), Red marrow: approximated from PET volume of interest in a lumbar vertebra; for Dosimetry estimate (OLINDA), Red marrow / Dosimetry estimate (OLINDA), Adrenals / Dosimetry estimate (OLINDA), Brain / Dosimetry estimate (OLINDA), Breasts / Dosimetry estimate (OLINDA), Gallbladder wall / Dosimetry estimate (OLINDA), Heart wall / Dosimetry estimate (OLINDA), Kidneys / Dosimetry estimate (OLINDA), Liver / Dosimetry estimate (OLINDA), Lower large intestine wall / Dosimetry estimate (OLINDA), Lungs / Dosimetry estimate (OLINDA), Muscle / Dosimetry estimate (OLINDA), Osteogenic cells / Dosimetry estimate (OLINDA), Ovaries / Dosimetry estimate (OLINDA), Pancreas / Dosimetry estimate (OLINDA), Skin / Dosimetry estimate (OLINDA), Small intestine / Dosimetry estimate (OLINDA), Spleen / Dosimetry estimate (OLINDA), Stomach wall / Dosimetry estimate (OLINDA), Testes / Dosimetry estimate (OLINDA), Thymus / Dosimetry estimate (OLINDA), Thyroid / Dosimetry estimate (OLINDA), Upper large intestine wall / Dosimetry estimate (OLINDA), Urinary bladder wall / Dosimetry estimate (OLINDA), Uterus / Dosimetry estimate (OLINDA), Total body: unit not given; for Dosimetry estimate (OLINDA), Adrenals / Dosimetry estimate (OLINDA), Brain / Dosimetry estimate (OLINDA), Breasts / Dosimetry estimate (OLINDA), Gallbladder wall / Dosimetry estimate (OLINDA), Heart wall / Dosimetry estimate (OLINDA), Kidneys / Dosimetry estimate (OLINDA), Liver / Dosimetry estimate (OLINDA), Lower large intestine wall / Dosimetry estimate (OLINDA), Lungs / Dosimetry estimate (OLINDA), Muscle / Dosimetry estimate (OLINDA), Osteogenic cells / Dosimetry estimate (OLINDA), Ovaries / Dosimetry estimate (OLINDA), Pancreas / Dosimetry estimate (OLINDA), Skin / Dosimetry estimate (OLINDA), Small intestine / Dosimetry estimate (OLINDA), Spleen / Dosimetry estimate (OLINDA), Stomach wall / Dosimetry estimate (OLINDA), Testes / Dosimetry estimate (OLINDA), Thymus / Dosimetry estimate (OLINDA), Thyroid / Dosimetry estimate (OLINDA), Upper large intestine wall / Dosimetry estimate (OLINDA), Urinary bladder wall / Dosimetry estimate (OLINDA), Uterus: organ dose
Experimental: as §1
The dosimetry analysis was performed using the QDOSE dosimetry software suite (ABX-CRO). Kidneys, liver, spleen, urinary bladder content, red marrow, heart content, and remainder of body were included as source organs. Because of blood sampling failure due to poor vein conditions, the red marrow dose was approximated using the activity segmented with volume-of-interest technique in the PET scans. The non–tumor-affected lumbar vertebrae 5 (^68Ga-FAPI-2) and 4 (^68Ga-FAPI-4) were assumed to contain 2.46% of the total red marrow ([6]). Using QDOSE, all CT images were coregistered using an automatic deformable coregistration. PET images were coupled to the CT images of the corresponding imaging session. The PET images were transformed according to the transformation matrix of the coupled CT. The volumes of interest of all segmented source organs were drawn in the examination that had the best organ delineation and then were copied onto all other time points to calculate the time–activity curves. Monoexponential curve fitting was then applied to all organ time–activity curves. The cumulative activity Ã between time 0 and the first measured time point was calculated assuming a linear increase from 0 to the first measured activity. The Ã between the first measured time point and the last measured time point was integrated numerically using trapezoidal approximation. The Ã from the last measured time point to infinity was integrated using the fitted function. The total-body Ã was based on the injected activity and the calculated effective half-life in a total-field-of-view volume of interest, assuming that the limbs behave similar to the torso. This approach was chosen because some parts of the body were not in the field of view of the PET/CT device. The Ã values of total body and red marrow were added as organs into QDOSE. The Ã of the remainder of the body was then automatically calculated by subtracting all source-organ Ã values from the total-body Ã. All source-organ residence times were calculated by dividing the Ã by the injected activity. Absorbed and effective dose calculations were performed using the International Commission on Radiological Protection (ICRP)–endorsed IDAC-Dose 2.1 and IDAC-Dose 1.0 ([7]), which are integrated in QDOSE. In addition, the residence times of all included source organs and remainder of body were exported as an OLINDA case file for dose calculation in OLINDA 1.1 ([8]). Both IDAC-Dose 1.0 and OLINDA 1.1 are based on the Cristy–Eckerman stylized phantom series ([9]). IDAC-Dose 2.1 is based on the ICRP adult reference computational phantoms ([10]) and the ICRP-specific absorbed fractions ([11]). Organ masses were not adapted to individual subject organ masses.

tumor lesions [4] = test: PET/CT tumor uptake (SUVmax) 1 h after injection; details: not statistically significant; for Uptake by tumors, average SUVmax: interindividual comparison, 25 patients per tracer
[5] = literature value, cited from earlier work
[6] = intraindividual comparison of 6 patients

SMILES | Decline of tumor uptake (washout) from 1 h to 3 h after injection (tumor lesions [1]) | Unspecific uptake in locations of wound healing after surgical intervention, average SUVmax [2] | Radiation exposure (effective dose) per 100 MBq [3] | Effective dose ([3]; calculated with IDAC1/ICRP60) | Effective dose ([3]; calculated with IDAC2/ICRP103) | Effective dose ([3]; calculated with OLINDA) | Equivalent dose / radiation dose of one examination [3] | Dosimetry estimate (OLINDA), Red marrow [3] | Dosimetry estimate (OLINDA), Adrenals [3] | Dosimetry estimate (OLINDA), Brain [3] | Dosimetry estimate (OLINDA), Breasts [3] | Dosimetry estimate (OLINDA), Gallbladder wall [3] | Dosimetry estimate (OLINDA), Heart wall [3] | Dosimetry estimate (OLINDA), Kidneys [3] | Dosimetry estimate (OLINDA), Liver [3] | Dosimetry estimate (OLINDA), Lower large intestine wall [3] | Dosimetry estimate (OLINDA), Lungs [3] | Dosimetry estimate (OLINDA), Muscle [3] | Dosimetry estimate (OLINDA), Osteogenic cells [3] | Dosimetry estimate (OLINDA), Ovaries [3] | also measured
N#C[C@@H]1CCCN1C(=O)CNC(=O)c1ccnc2ccc(OCCCN3CCN(C(=O)CN4CCN(CC(=O)O)CCN(CC(=O)O)CCN(CC(=O)O)CC4)CC3)cc12 [^68Ga-FAPI-2, metal not drawn] | 75% | 7.07 | 1.4 mSv/100 MBq and 1.4–1.8 mSv/100 MBq | 1.82E−2 mSv/MBq | 1.79E−2 mSv/MBq | 1.80E−2 mSv/MBq and 1.80E−02 mSv/MBq | 3–4 mSv | 3.28E−02 | 1.23E−02 | 9.54E−03 | 9.58E−03 | 1.19E−02 | 4.73E−02 | 4.45E−02 | 1.51E−02 | 1.23E−02 | 1.09E−02 | 1.04E−02 | 2.94E−02 | 1.24E−02 | Background uptake in brain, average SUVmax [2, 6]: 0.32; Background uptake in liver, average SUVmax [2, 6]: 1.69; Background uptake in oral/pharyngeal mucosa, average SUVmax [2, 6]: 2.57; Uptake in all other organs compared with 18F-FDG ([2]; organs other than brain, liver, oral/pharyngeal mucosa, 6 patients): no significant difference; Dosimetry estimate (OLINDA), Pancreas [3]: 1.23E−02; Dosimetry estimate (OLINDA), Skin [3]: 9.01E−03; Dosimetry estimate (OLINDA), Small intestine [3]: 1.19E−02; Dosimetry estimate (OLINDA), Spleen [3]: 2.62E−02; Dosimetry estimate (OLINDA), Stomach wall [3]: 1.13E−02; Dosimetry estimate (OLINDA), Testes [3]: 1.04E−02; Dosimetry estimate (OLINDA), Thymus [3]: 1.15E−02; Dosimetry estimate (OLINDA), Thyroid [3]: 1.03E−02; Dosimetry estimate (OLINDA), Upper large intestine wall [3]: 1.17E−02; Dosimetry estimate (OLINDA), Urinary bladder wall [3]: 8.89E−02; Dosimetry estimate (OLINDA), Uterus [3]: 1.33E−02; Dosimetry estimate (OLINDA), Total body [3]: 1.19E−02; Uptake by tumors, average SUVmax (tumor lesions [4]): 8.37; Tumor uptake, average SUVmax (tumor lesions [4]; [6]): 7.37
N#C[C@@H]1CC(F)(F)CN1C(=O)CNC(=O)c1ccnc2ccc(OCCCN3CCN(C(=O)CN4CCN(CC(=O)O)CCN(CC(=O)O)CCN(CC(=O)O)CC4)CC3)cc12 [^68Ga-FAPI-4, metal not drawn] | 25% | 6.76 | 1.8 mSv/100 MBq and 1.4–1.8 mSv/100 MBq | 1.66E−2 mSv/MBq | 1.35E−2 mSv/MBq | 1.64E−2 mSv/MBq and 1.64E−02 mSv/MBq | 3–4 mSv | 2.08E−02 | 1.12E−02 | 9.11E−03 | 8.88E−03 | 1.13E−02 | 2.02E−02 | 4.43E−02 | 1.46E−02 | 1.17E−02 | 9.89E−03 | 9.91E−03 | 2.16E−02 | 1.19E−02 | Dosimetry estimate (OLINDA), Pancreas [3]: 1.13E−02; Dosimetry estimate (OLINDA), Skin [3]: 8.63E−03; Dosimetry estimate (OLINDA), Small intestine [3]: 1.13E−02; Dosimetry estimate (OLINDA), Spleen [3]: 1.05E−02; Dosimetry estimate (OLINDA), Stomach wall [3]: 1.06E−02; Dosimetry estimate (OLINDA), Testes [3]: 1.01E−02; Dosimetry estimate (OLINDA), Thymus [3]: 1.01E−02; Dosimetry estimate (OLINDA), Thyroid [3]: 9.82E−03; Dosimetry estimate (OLINDA), Upper large intestine wall [3]: 1.11E−02; Dosimetry estimate (OLINDA), Urinary bladder wall [3]: 9.91E−02; Dosimetry estimate (OLINDA), Uterus [3]: 1.30E−02; Dosimetry estimate (OLINDA), Total body [3]: 1.09E−02; Uptake by tumors, average SUVmax (tumor lesions [4]): 10.07
O=C([O-])CN(CCN(CC(=O)[O-])Cc1cc(CCC(=O)NCCCCCC(=O)NCCCC[C@H](NC(=O)N[C@@H](CCC(=O)O)C(=O)O)C(=O)O)ccc1[O-])Cc1cc(CCC(=O)O)ccc1[O-].[68Ga+3].[OH3+] [^68Ga-PSMA-11] |  |  |  |  |  |  |  |  |  |  |  |  |  |  |  |  |  |  |  |  | Effective dose [5]: 1.6–2.4 mSv/100 MBq
O=C([O-])CN1CCN(CC(=O)[O-])CCN(CC(=O)NC[C@H]2CC[C@H](C(=O)N[C@@H](Cc3ccc4ccccc4c3)C(=O)NCCCC[C@H](NC(=O)N[C@@H](CCC(=O)O)C(=O)O)C(=O)O)CC2)CCN(CC(=O)[O-])CC1.[68Ga+3] [^68Ga-PSMA-617] |  |  |  |  |  |  |  |  |  |  |  |  |  |  |  |  |  |  |  |  | Effective dose ([5]; no reference of its own printed): 2.1 mSv/100 MBq
